Experimental data from ChEMBL document CHEMBL4145659, “Discovery of a Series of Indole-2 Carboxamides as Selective Secreted Phospholipase A2 Type X (sPLA2-X) Inhibitors” (ACS Med Chem Lett, 2018).
Activity calls are given as the source filed them. No cut-off for these calls is given here.

Tests used:
[1] = biological target: T1, Phospholipase A2, membrane associated (Homo sapiens, UniProt P14555); experiment: Inhibition of recombinant human sPLA2-2A expressed in Escherichia coli BL21(DE3) using 1-palmitoyl-2-oleoyl-sn-glycero-3-phosphocholine as substrate pretreated for 20 mins followed by substrate addition and measured after 60 mins
T1 sequence (P14555 whole entry): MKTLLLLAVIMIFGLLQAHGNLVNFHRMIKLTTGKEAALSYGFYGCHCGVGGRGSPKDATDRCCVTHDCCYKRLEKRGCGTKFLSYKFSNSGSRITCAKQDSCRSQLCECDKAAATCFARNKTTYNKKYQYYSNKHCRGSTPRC

[2] = biological target: T2, Group 10 secretory phospholipase A2 (Homo sapiens, UniProt O15496); experiment: (§1) Inhibition of recombinant human sPLA2-10 expressed in Escherichia coli BL21(DE3) using 1-palmitoyl-2-oleoyl-sn-glycero-3-phosphocholine as substrate pretreated for 20 mins followed by substrate addition and measured after 60 mins
T2 sequence (O15496 whole entry): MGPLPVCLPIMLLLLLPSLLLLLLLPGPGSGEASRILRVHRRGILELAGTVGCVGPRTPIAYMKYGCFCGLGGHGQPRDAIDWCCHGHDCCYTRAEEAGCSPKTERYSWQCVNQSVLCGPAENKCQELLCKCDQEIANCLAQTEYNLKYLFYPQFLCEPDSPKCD

[3] = biological target: T3, Phospholipase A2 group V (Homo sapiens) (UniProt P39877); experiment: Inhibition of recombinant human sPLA2-5 expressed in Escherichia coli BL21(DE3) at 30 uM using 1-palmitoyl-2-oleoyl-sn-glycero-3-phosphocholine as substrate pretreated for 20 mins followed by substrate addition and measured after 60 mins
T3 sequence (whole entry): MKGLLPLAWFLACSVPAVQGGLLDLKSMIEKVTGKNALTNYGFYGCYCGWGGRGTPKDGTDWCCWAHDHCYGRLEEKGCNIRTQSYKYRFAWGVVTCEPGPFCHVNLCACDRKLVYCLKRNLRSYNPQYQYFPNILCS

[4] = biological target: T4, Group 10 secretory phospholipase A2 (Homo sapiens) (UniProt O15496); experiment: as §1
T4 sequence (whole entry): T2 sequence (O15496 whole entry)

[5] = biological target: T5, Phospholipase A2 group V (Homo sapiens, UniProt P39877); experiment: Inhibition of recombinant human sPLA2-5 expressed in Escherichia coli BL21(DE3) using 1-palmitoyl-2-oleoyl-sn-glycero-3-phosphocholine as substrate pretreated for 20 mins followed by substrate addition and measured after 60 mins
T5 sequence (P39877 whole entry): T3 sequence (whole entry)

[6] = biological target: T2, Group 10 secretory phospholipase A2; experiment: Inhibition of recombinant human sPLA2-10 expressed in Escherichia coli BL21(DE3) using HDL as substrate pretreated for 20 mins followed by substrate addition and measured after 60 mins
[7] = biological target: T6, Phospholipase A2, membrane associated (Homo sapiens) (UniProt P14555); experiment: Inhibition of recombinant human sPLA2-2A expressed in Escherichia coli BL21(DE3) at 30 uM using 1-palmitoyl-2-oleoyl-sn-glycero-3-phosphocholine as substrate pretreated for 20 mins followed by substrate addition and measured after 60 mins
T6 sequence (whole entry): T1 sequence (P14555 whole entry)

[8] = AUC in Sprague-Dawley rat at 1 µmol/kg, iv by LC/MS analysis; details: in vivo
[9] = Clearance in Sprague-Dawley rat at 1 µmol/kg, iv by LC/MS analysis; details: in vivo
[10] = Volume of distribution at steady state in Beagle dog at 1 µmol/kg, iv by LC/MS analysis; details: in vivo, read-out: Vdss
[11] = AUC in Beagle dog at 1 µmol/kg, iv by LC/MS analysis; details: in vivo
[12] = Clearance in Beagle dog at 1 µmol/kg, iv by LC/MS analysis; details: in vivo
[13] = Intrinsic clearance in human hepatocytes assessed per million cells at 1 uM measured after 2 to 60 mins; assay type: ADME, cell-based, Hepatocyte; details: read-out: CLH
[14] = AUC in Sprague-Dawley rat at 4 µmol/kg, po administered via gavage by LC/MS analysis; details: in vivo
[15] = biological target: T7, Group 10 secretory phospholipase A2 (Mus musculus, UniProt Q9QXX3); experiment: Inhibition of mouse sPLA2-10 using 1-palmitoyl-2-oleoyl-sn-glycero-3-phosphocholine as substrate pretreated for 20 mins followed by substrate addition and measured after 60 mins
T7 sequence (Q9QXX3 whole entry): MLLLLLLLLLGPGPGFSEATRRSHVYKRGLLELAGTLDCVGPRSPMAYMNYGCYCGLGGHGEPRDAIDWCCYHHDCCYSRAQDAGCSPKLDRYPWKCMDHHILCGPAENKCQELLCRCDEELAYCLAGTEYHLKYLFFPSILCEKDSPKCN

[16] = Oral bioavailability in Sprague-Dawley rat at 4 µmol/kg administered via gavage by LC/MS analysis; details: in vivo
[17] = Volume of distribution at steady state in Sprague-Dawley rat at 1 µmol/kg, iv by LC/MS analysis; details: in vivo, read-out: Vdss

CCc1ccc2cc(C(N)=O)n(-c3cccc(CCC(=O)O)c3)c2c1
IC50 [1]: 4.4 µM | IC50 [2]: 0.17 µM | inhibition [3]: inactive

NC(=O)c1cc2ccsc2n1-c1cccc(CCC(=O)O)c1
inhibition [4]: inactive

CS(=O)(=O)NC(=O)CCc1cccc(-n2c(C(N)=O)cc3ccccc32)c1
IC50 [2]: 4.8 µM

NC(=O)c1cc2cccnc2n1-c1cccc(CCC(=O)O)c1
inhibition [4]: inactive

NC(=O)c1cc2ccc(C3CC3)cc2n1-c1cccc(CCC(=O)O)c1
IC50 [1]: 2.3 µM | IC50 [2]: 0.16 µM | IC50 [5]: > 10 µM | IC50 [6]: 1.9 µM

NC(=O)c1cc2ccccc2n1-c1cccc(CC(=O)O)c1
IC50 [2]: 10.3 µM

NC(=O)c1cc2ccc(C(F)(F)F)cc2n1-c1cccc(CCC(=O)O)c1
IC50 [1]: 0.89 µM | IC50 [2]: 0.043 µM | IC50 [5]: 3.7 µM | IC50 [6]: 0.48 µM

NC(=O)c1nc2ccccn2c1-c1cccc(CCC(=O)O)c1
inhibition [4]: inactive

NC(=O)c1cc2ccccc2n1-c1cccc(/C=C/C(=O)O)c1
IC50 [2]: 23.6 µM

COc1ccc2cc(C(N)=O)n(-c3cccc(CCC(=O)O)c3)c2c1
IC50 [2]: 0.62 µM | inhibition [7]: inactive | inhibition [3]: inactive

NC(=O)CCc1cccc(-n2c(C(N)=O)cc3ccccc32)c1
IC50 [2]: > 30 µM

NC(=O)c1cc2ccc(CO)cc2n1-c1cccc(CCC(=O)O)c1
IC50 [2]: 2.8 µM | inhibition [7]: inactive | inhibition [3]: inactive

NC(=O)c1cc2ccccc2n1-c1cccc(C(=O)NCC(=O)O)c1
IC50 [2]: 7.2 µM

Cc1cccc2cc(C(N)=O)n(-c3cccc(CCC(=O)O)c3)c12
IC50 [2]: 1.9 µM | inhibition [7]: inactive | inhibition [3]: inactive

NC(=O)c1cc2ccccc2n1Cc1cccc(C(=O)O)c1
IC50 [2]: 20.7 µM

NC(=O)c1cc2ccccc2n1-c1cccc(C(F)(F)F)c1
IC50 [2]: 6.9 µM

Cc1ccc2cc(C(N)=O)n(-c3cccc(CCC(=O)O)c3)c2c1
IC50 [2]: 0.23 µM | inhibition [7]: inactive | inhibition [3]: inactive

NC(=O)c1cccn1-c1cccc(CCC(=O)O)c1
inhibition [4]: inactive

NC(=O)c1cc2sccc2n1-c1cccc(CCC(=O)O)c1
inhibition [4]: inactive

NC(=O)c1cc2ccc(OC(F)(F)F)cc2n1-c1cccc(CCC(=O)O)c1
AUC [8]: 1.84 µM·h | IC50 [1]: 0.31 µM | clearance [9]: 9.1 mL/min/kg | Vd [10]: 0.44 L/kg | AUC [11]: 8.78 µM·h | clearance [12]: 0.75 mL/min/kg | IC50 [2]: 0.026 µM | hepatocyte CLint at 1 µM [13]: 1.7 µL/min/1e6 cells | AUC [14]: 11 µM·h | IC50 [15]: 0.096 µM | bioavailability [16]: 100% | Vd [17]: 2.54 L/kg | IC50 [5]: 2.23 µM | IC50 [6]: 0.27 µM

NC(=O)c1cc2ccccc2n1-c1ccccc1
IC50 [2]: > 30 µM

Cc1cccc2c1cc(C(N)=O)n2-c1cccc(CCC(=O)O)c1
IC50 [2]: 0.83 µM

N#Cc1ccc2cc(C(N)=O)n(-c3cccc(CCC(=O)O)c3)c2c1
IC50 [1]: 3.9 µM | IC50 [2]: 0.11 µM | inhibition [3]: inactive | IC50 [6]: 0.99 µM

NC(=O)c1cc2ccccc2n1-c1cccc(C(=O)O)c1
IC50 [2]: 29.1 µM

NC(=O)c1cc2ccccc2n1-c1cccc(OCC(=O)O)c1
IC50 [2]: 26.9 µM

Cc1ccc2c(c1)cc(C(N)=O)n2-c1cccc(CCC(=O)O)c1
IC50 [2]: 2.7 µM

NC(=O)c1cc2ccc(Cl)cc2n1-c1cccc(CCC(=O)O)c1
IC50 [1]: 5.7 µM | IC50 [2]: 0.09 µM | inhibition [3]: inactive | IC50 [6]: 1.1 µM

NC(=O)c1cc2ccccc2n1-c1cccc(CCC(=O)O)c1
IC50 [2]: 0.99 µM | inhibition [7]: inactive | inhibition [3]: inactive

NC(=O)c1cc2ccc(F)cc2n1-c1cccc(CCC(=O)O)c1
IC50 [2]: 0.26 µM | inhibition [7]: inactive | inhibition [3]: inactive

CCc1c(C(=O)C(N)=O)c2c(OCC(=O)O)cccc2n1Cc1ccccc1 [VARESPLADIB]
IC50 [5]: 0.124 µM

NC(=O)c1cc2ccc(OC(F)F)cc2n1-c1cccc(CCC(=O)O)c1
IC50 [1]: 3.6 µM | IC50 [2]: 0.068 µM | inhibition [3]: inactive | IC50 [6]: 0.37 µM

NC(=O)c1cc2ccc(OCC(F)(F)F)cc2n1-c1cccc(CCC(=O)O)c1
IC50 [1]: > 10 µM | IC50 [2]: 0.093 µM | inhibition [3]: inactive | IC50 [6]: 0.74 µM
